Data from patent US20200390774A1, “TRPA1 ANTAGONISTS FOR USE IN THE TREATMENT OF ATOPIC DERMATITIS” (GALDERMA RESEARCH & DEVELOPMENT, priority 2016, published 2020).

What was measured:
[1] = system: TRPA1 agonist-induced ear edema; assay: Topical PD model: AITC (TRPA1 agonist)-induced ear edema; format: in vivo, mouse; conditions: topical 1% or 3% in acetone, 1 h before 6% AITC, measured during 6 hours
Method: Test antagonists B to D were formulated at 1% or 3% in an acetone vehicle, applied to the mouse ear skin (10 μl/ear both faces) and left for 1 hour. Then, 10 μl of a 6% solution of allyl isothiocyanate (AITC) in acetone (vehicle 001) was applied to the same location, and ear thickness was measured at TO, 30 min, 1 h, 2 h, 4 h and 6 h. A topical pharmacodynamics (PD) model was designed in mouse, in which test antagonists B to D were formulated at 1% or 3% in an acetone vehicle, applied to the ear skin and left for 1 hour. After this time, a 6% solution of allyl isothiocyanate (AITC), a TRPA1 agonist, in acetone (vehicle 001) was then applied to the same location and ear edema (via the ear thickness) was measured during 6 hours.

mouse AD-patch model = assay: AD-patch model (DERP epicutaneous sensitization); format: in vivo; conditions: topical 1% in acetone, days 44, 47 and 50; for epidermis thickness, change / inflammatory scores, change: day 51 histology; for TEWL-increase, change: measured day 51
Method: Female Balb/c mice were treated with Dermatophagoïdes pteronyssinus (DERP) allergen in 3 cycles of epicutaneous sensitization (patch) on abdominal skin with 2 patches applied twice weekly followed by 2 weeks of rest, during 7 weeks. Antagonists B or D were formulated at 1% in an acetone vehicle, applied to the sensitized-skin 2 hours before DERP-patches installation. Topical treatments with antagonists or a corticosteroid (used as a control) were only performed 3 times in the 3rd and last week of sensitization (at days 44, 47 and 50).
TEWL is measured the last day (Day 51) according to the protocol of FIG. 2.
On day 51, animals are sacrificed and skin is removed and fixed in formalin followed by embedment in paraffin, sectioning and staining with hematoxylin and eosin. Epidermis thickness is measured by averaging the values of measurements of five independent fields of view.
On day 51, animals are sacrificed and skin is removed and fixed in formalin followed by embedment in paraffin, sectioning and staining with hematoxylin and eosin. Inflammation score is quantified by averaging the values of 10 random fields of view per sample, scored for inflammation with a gradient (semi-quantitative scoring from 0 to 5).
At day 51, gene expression of IL4 cytokine is quantified after RNA extraction from skin, RNA retro transcription and PCR using the TaqMan® Universal MasterMix of Applied Biosystem. cDNA of mice of group Vehicle 001 are used as comparator.
At day 51, gene expression of TSLP cytokine is quantified after RNA extraction from skin, RNA retro transcription and PCR using the TaqMan® Universal MasterMix of Applied Biosystem. cDNA of mice of group Vehicle 001 are used as comparator.
AD inflammatory response was induced by epicutaneous sensitization with patches soaked with 100 μg of allergen in sterile saline (Dermatophagoïdes pteronyssinus or DERP) or with vehicle applied on abdominal skin 24 h after shaving and left on for three 1-wk periods (with patch renewal at midweek), with a 2-wk interval between applications. The presence of the patches and of a transparent occlusive dressing above, prevented licking, biting and scratching from mouse, therefore the inflammatory response in this model is not due to the scratch-itch cycle.
Antagonists B or D were formulated at 1% in an acetone vehicle, applied to the sensitized-skin 2 hours before DERP-patches installation. Topical treatments with antagonists or a corticosteroid (used as a control) were only performed 3 times in the 3rd and last week of sensitization (at days 44, 47 and 50).
At the time of the last patch removal (day 51), skin samples and blood were collected.
Skin was collected for histological, immunohistological analyses and real-time PCR after RNA extraction. Ig (IgE, and specific IgG) concentrations in serum were measured by ELISA

hTRPA1 = hTRPA1 (Homo sapiens, UniProt O75762); conditions: value in μM; cited from earlier work
rTRPA1 = rTRPA1 (Rattus norvegicus, UniProt Q6RI86); conditions: cited from earlier work
pain models = conditions: cited from earlier work
hTRPV3 = biological target: T1, hTRPV3 (Homo sapiens, UniProt Q8NET8); conditions: unit inferred; cited from earlier work
T1 sequence (Q8NET8 1-790): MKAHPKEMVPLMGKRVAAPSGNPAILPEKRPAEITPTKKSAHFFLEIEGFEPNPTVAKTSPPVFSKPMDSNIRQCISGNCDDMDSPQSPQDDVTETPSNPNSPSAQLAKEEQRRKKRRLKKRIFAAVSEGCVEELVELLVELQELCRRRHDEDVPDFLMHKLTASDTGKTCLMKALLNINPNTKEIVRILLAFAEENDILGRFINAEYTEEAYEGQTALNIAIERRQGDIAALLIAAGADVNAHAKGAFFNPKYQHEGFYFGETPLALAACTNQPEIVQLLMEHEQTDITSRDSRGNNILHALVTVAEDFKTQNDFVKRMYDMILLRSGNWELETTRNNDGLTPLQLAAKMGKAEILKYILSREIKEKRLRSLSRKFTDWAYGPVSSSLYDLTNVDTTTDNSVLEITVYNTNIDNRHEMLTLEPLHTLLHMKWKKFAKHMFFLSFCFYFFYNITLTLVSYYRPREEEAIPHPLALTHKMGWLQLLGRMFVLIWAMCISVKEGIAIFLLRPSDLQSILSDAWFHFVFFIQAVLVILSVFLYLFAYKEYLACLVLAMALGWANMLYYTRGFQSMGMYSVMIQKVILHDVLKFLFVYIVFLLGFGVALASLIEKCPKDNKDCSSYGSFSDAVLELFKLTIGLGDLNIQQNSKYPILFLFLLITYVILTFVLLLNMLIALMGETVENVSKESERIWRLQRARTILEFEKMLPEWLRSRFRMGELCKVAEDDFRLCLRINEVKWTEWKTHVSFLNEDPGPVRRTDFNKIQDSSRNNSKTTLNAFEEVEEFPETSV

[2] = system: imiquimod-induced psoriasiform skin inflammation; assay: Imiquimod (Aldara) psoriasiform model; format: in vivo, mouse; conditions: topical 1% in PG/EtOH twice daily, day 8
Method: The treatment protocol consists of a daily topical application of Aldara (3.18 mg of imiquimod) for 7 days on the shaved back skin of Balb/c mice. Compound C was dissolved in PG/EtOH at 1% and was applied twice daily 2 h before and 6 h after Aldara treatment. Corticosteroid was dissolved in acetone (Vehicle 001) at 0.01% and applied only 2 h before Aldara treatment. Epidermis thickness is then measured at day 8 according to the protocol of FIG. 3. […] Indeed, it induces inflamed scaly skin lesions resembling psoriasis plaques. […] IMQ induced epidermal expression of IL-23, IL-17A, and IL-17F, as well as an increase in splenic Th17 cells (J Immunol. 2009 May 1; 182(9):5836-45). Mice received a daily topical dose of 63.5 mg (14 μl) of commercially available IMQ cream (5%) (Aldara; 3M Pharmaceuticals) on the shaved back skin for 7 consecutive days.

[3] = cited from earlier work

Sequence of hTRPA1 (O75762 whole entry): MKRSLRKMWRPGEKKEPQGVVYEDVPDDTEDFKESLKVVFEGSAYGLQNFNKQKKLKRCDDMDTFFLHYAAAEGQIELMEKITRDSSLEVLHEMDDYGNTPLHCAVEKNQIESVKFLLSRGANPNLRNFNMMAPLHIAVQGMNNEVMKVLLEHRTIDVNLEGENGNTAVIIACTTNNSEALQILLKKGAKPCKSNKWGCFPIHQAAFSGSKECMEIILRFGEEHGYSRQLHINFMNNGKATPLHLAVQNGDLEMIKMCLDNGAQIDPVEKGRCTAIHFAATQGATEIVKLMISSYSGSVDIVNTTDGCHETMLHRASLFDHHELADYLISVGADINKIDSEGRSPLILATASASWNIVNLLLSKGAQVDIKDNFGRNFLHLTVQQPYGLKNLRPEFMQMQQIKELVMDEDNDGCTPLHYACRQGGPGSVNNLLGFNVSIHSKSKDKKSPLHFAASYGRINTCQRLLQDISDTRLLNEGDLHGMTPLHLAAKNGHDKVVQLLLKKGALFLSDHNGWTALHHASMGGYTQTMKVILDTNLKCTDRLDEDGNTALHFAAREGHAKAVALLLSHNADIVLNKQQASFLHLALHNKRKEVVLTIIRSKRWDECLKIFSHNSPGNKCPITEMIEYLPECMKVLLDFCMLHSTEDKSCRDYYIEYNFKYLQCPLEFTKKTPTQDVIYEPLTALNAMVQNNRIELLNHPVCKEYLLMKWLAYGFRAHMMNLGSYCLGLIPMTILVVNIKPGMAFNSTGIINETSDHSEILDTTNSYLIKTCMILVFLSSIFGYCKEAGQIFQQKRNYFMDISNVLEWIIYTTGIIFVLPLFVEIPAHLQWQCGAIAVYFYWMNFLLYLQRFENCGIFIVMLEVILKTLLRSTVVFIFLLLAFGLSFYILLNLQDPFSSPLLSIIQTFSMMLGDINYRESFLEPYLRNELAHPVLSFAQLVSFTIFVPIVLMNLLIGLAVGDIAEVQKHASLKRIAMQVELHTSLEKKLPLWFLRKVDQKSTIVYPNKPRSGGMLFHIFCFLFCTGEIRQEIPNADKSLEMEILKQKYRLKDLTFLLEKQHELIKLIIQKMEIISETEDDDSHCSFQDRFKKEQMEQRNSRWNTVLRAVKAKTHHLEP
Sequence of rTRPA1 (Q6RI86 whole entry): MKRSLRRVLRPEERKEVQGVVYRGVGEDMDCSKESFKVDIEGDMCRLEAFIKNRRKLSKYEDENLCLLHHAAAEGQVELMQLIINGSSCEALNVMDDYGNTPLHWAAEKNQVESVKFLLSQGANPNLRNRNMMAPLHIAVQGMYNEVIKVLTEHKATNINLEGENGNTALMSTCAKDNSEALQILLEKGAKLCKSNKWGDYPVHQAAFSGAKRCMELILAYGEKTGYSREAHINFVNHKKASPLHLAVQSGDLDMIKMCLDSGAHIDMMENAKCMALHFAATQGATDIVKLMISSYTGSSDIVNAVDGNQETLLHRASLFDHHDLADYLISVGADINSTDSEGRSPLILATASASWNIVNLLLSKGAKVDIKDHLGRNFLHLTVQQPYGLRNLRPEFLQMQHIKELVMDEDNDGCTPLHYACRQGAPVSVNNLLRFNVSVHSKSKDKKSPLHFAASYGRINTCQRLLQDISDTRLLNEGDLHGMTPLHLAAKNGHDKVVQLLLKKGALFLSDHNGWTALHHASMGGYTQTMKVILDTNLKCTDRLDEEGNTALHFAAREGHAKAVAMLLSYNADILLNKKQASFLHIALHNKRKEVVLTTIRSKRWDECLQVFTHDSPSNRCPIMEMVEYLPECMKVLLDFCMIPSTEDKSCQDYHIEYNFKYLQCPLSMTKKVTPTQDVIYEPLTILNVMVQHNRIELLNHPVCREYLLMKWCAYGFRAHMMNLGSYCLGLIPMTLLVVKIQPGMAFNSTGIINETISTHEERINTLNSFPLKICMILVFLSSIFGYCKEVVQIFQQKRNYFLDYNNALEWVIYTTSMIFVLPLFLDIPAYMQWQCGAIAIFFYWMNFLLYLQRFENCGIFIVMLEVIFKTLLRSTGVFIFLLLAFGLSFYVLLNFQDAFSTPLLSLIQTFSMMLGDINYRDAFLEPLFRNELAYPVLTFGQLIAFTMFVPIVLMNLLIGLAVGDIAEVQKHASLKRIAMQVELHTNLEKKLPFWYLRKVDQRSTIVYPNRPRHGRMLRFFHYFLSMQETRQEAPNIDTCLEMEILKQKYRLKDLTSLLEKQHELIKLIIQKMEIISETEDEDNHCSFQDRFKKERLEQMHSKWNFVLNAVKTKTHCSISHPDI

SMILES | TRPA1 agonist-induced ear edema (ear thickness) [1] | epidermis thickness, change (mouse AD-patch model) [%] | inflammatory scores, change (mouse AD-patch model) [%] | TEWL-increase, change (mouse AD-patch model) [%] | IC50 (hTRPA1) [µM] | IC50 (rTRPA1) [µM] | Efficacy described in pain models in rat (pain models; rat) | IC50 (hTRPV3) [µM] | IL-17 production by yO T cells (IL17f mRNA) [2] | imiquimod-induced epidermis thickness increase [2] | Efficacy described in pain model (ip) (pain models; ip) | oral bioavailability described in rat [3]
CCC(C)c1ccc(NC(=O)Cn2cnc3c2c(=O)n(C)c(=O)n3C)cc1 (stereo not drawn) [compound D, reference compound] | decreased | −26 | −32 | −60 | 14 to 18 | 0.23 | Efficacy | – | – | – | – | –
Cc1cc2[nH]ncc2cc1-c1ccccc1C(F)(F)F [compound B] | decreased | −32 | −27 | −54 | – | – | – | > 30 | – | – | – | –
FC(F)(F)c1ccccc1-c1cc2cn[nH]c2cc1OCC1CC1 [compound C] | decreased | – | – | – | – | – | – | > 30 | did not significantly reduce | did not significantly reduce | Efficacy | Low oral
